Results: patent US20250075235A1, “PRODUCTION OF ETHANOL WITH ONE OR MORE CO-PRODUCTS IN YEAST” (Braskem S.A., priority 2020, published 2025)

Assays:
[1] = system: industrial ethanol-producing yeast strain PE-2; assay: Laboratory simulation of yeast sugar-ethanol fermentation with exogenously added alcohols; assay type: cell-based, Saccharomyces cerevisiae; conditions: 1 L bioreactor, 224 g/L glucose, pH 4.5, 32° C., 70 hours; about 16 g alcohol added
Experimental: The experiment was performed using a 1 L bioreactor with 0.7 L as a final volume. The pH was controlled at 4.5 by adding NaOH 25% w/w, 32° C. temperature and 300 rpm stirring. The industrial ethanol-producing yeast strain used was PE-2, with an initial pitch of 0.7 g/L DWC and the culture medium was YNB without amino acids. The final sugar concentration was 224 g/L glucose. The experiment was performed under aseptic conditions. The bioreactor was first filled with 650 ml of YNB medium plus sugar, and after pH and temperature stabilization, a suspension of 50 mL with the yeast inoculum was added into the bioreactor. […] Each solution followed the profile: 10 hours since inoculation, 0.2 mL/min; from 11 hours to 15 hours, 0.4 mL/min; from 16 hours to 40 hours, 0.6 mL/min; and from 41 hours to 46 hours, 0.2 mL/min. This profile was added to simulate an ethanol production profile of PE-2 yeast. The fermentation was ended with 70 hours of fermentation run.

[2] = system: industrial ethanol-producing yeast strain PE-2; assay: Alcohol tolerance experiment: sugar (glucose) consumption of yeast cultures with added alcohols; assay type: cell-based, Saccharomyces cerevisiae; conditions: for Sugar Consumption: PE-2, YNB medium, 40 g/L glucose, 32° C., 8-9 hours, no consumption = lethal concentration; for Sugar consumption inhibition per unit of alcohol regarding the Control (+) condition (no alcohol added) / Slope (linear regression of sugar consumption inhibition against alcohol concentration): samples two hours after inoculation; for Slope (linear regression of sugar consumption inhibition against alcohol concentration): alcohol concentration in g/L; for Toxicity related to ethanol (times more inhibition than ethanol): ratio of sugar consumption inhibition per unit of alcohol to that of ethanol
Experimental: An alcohol tolerance experiment was conducted to understand the negative effects of n-propanol (i.e., 1-propanol), 2-propanol, and 2-butanol compared to ethanol in Saccharomyces cerevisiae. Ethanol, which is a natural product (or native product) produced during sugar-ethanol fermentation is generally well-tolerated by yeast such as S. cerevisiae. However, existing approaches to produce non-natural chemicals such as C3, C4, or C5 alcohols, ketones, organic acids, or other non-natural products (e.g., alcohols other than ethanol) by using genetically modified yeast are usually impacted negatively by the higher toxicity compared to ethanol of such non-natural chemicals or alcohols (e.g., n-propanol and 2-propanol) to the yeast cell-growth and/or performance.
Several concentrations of n-propanol, 2-propanol, 2-butanol and ethanol was tested in yeast cultures. The experiment was conducted using the industrial ethanol-producing yeast strain PE-2 in a 250 mL shaken flask with 50 mL of YNB medium having 40g/L glucose at 32° C. The culture was conducted during 8-9 hours with an initial OD600 nm=12 (OD=optical density). Samples were taken in adequate intervals and analyzed by HPLC to measure glucose, ethanol, n-propanol, 2-propanol and 2-butanol. The experiment was performed according to the parameters in Table 13, in duplicate. The conditions at which no sugar consumption was observed were considered a lethal concentration and were excluded from the analysis.
The percentage of glucose consumption inhibition was assessed for various concentrations of alcohols. Samples were tested two hours after inoculation. At this point, glucose had not been totally consumed.

CCO [Condition 1, ethanol]
Ethanol produced [1]: 80.9 g
Ethanol yield [1]: 0.5 g/g
Volumetric productivity [1]: 1.4 g/Lh

CCO [Ethanol, ethanol]
Sugar Consumption ([2]; alcohol 20 g/L): Yes
Sugar Consumption ([2]; alcohol 40 g/L): Yes
Sugar Consumption ([2]; alcohol 60 g/L): Yes
Sugar Consumption ([2]; alcohol 80 g/L): Yes
Sugar Consumption ([2]; alcohol 120 g/L): Yes
Sugar consumption inhibition per unit of alcohol regarding the Control (+) condition (no alcohol added) [2]: 0.62% per g · L^−1 of alcohol
Slope (linear regression of sugar consumption inhibition against alcohol concentration) [2]: 0.0062

2-butanol
Sugar Consumption ([2]; alcohol 20 g/L): Yes
Sugar Consumption ([2]; alcohol 40 g/L): Yes
Sugar Consumption ([2]; alcohol 60 g/L): No
Sugar Consumption ([2]; alcohol 80 g/L): No
Toxicity related to ethanol (times more inhibition than ethanol) [2]: 2.94
Sugar consumption inhibition per unit of alcohol regarding the Control (+) condition (no alcohol added) [2]: 1.82% per g · L^−1 of alcohol
Slope (linear regression of sugar consumption inhibition against alcohol concentration) [2]: 0.0182

CC(C)O [2-Propanol, isopropyl alcohol]
Sugar Consumption ([2]; alcohol 20 g/L): Yes
Sugar Consumption ([2]; alcohol 40 g/L): Yes
Sugar Consumption ([2]; alcohol 60 g/L): Yes
Sugar Consumption ([2]; alcohol 80 g/L): Yes
Toxicity related to ethanol (times more inhibition than ethanol) [2]: 1.45
Sugar consumption inhibition per unit of alcohol regarding the Control (+) condition (no alcohol added) [2]: 0.90% per g · L^−1 of alcohol
Slope (linear regression of sugar consumption inhibition against alcohol concentration) [2]: 0.009

n-propanol
Sugar Consumption ([2]; alcohol 20 g/L): Yes
Sugar Consumption ([2]; alcohol 40 g/L): Yes
Sugar Consumption ([2]; alcohol 60 g/L): Yes
Sugar Consumption ([2]; alcohol 80 g/L): No
Toxicity related to ethanol (times more inhibition than ethanol) [2]: 2.16
Sugar consumption inhibition per unit of alcohol regarding the Control (+) condition (no alcohol added) [2]: 1.34% per g · L^−1 of alcohol
Slope (linear regression of sugar consumption inhibition against alcohol concentration) [2]: 0.0134
